The test system of test [1] is Capan-1 (pancreatic). In words: Proliferation EC50 on SISgel vs monolayer. Type of test: cell-based. Particulars: n = 6-8. The text has this: (§1) The libraries were obtained from the NCI (Diversity Library I) comprised of 2,918 compounds and a 10,000 compound diversity library from ChemBridge, Inc. (DiverSet-EXP). The NCI library is no longer available in the form used here, but how it was constructed is described (http://dtp.nci.nih.gov/branches/dscb/diversity_explanation.html). The ChemBridge library is a subset (Set Code NM1024) of the full 50,000 compound library (http://www.chembridge.com/screening_libraries/diversity_libraries/). Compounds were diluted to 100 μM before use. SISgel was prepared as described previously from powdered porcine small intestine submucosa obtained from Cook Biotech (W. Lafayette, IN). It is a natural product that is used extensively in tissue engineering as a bioscaffold. J82 bladder cancer cells and other cell lines were obtained from the ATCC (Bethesda, MD). The basic principle is that cells grown on any ECM are, in general, expected to show higher resistance to anticancer compounds than when grown on plastic. Therefore, compounds that show a higher activity toward cancer cells on a normal ECM than on a plastic surface would be candidates to target suppressed, micrometastatic cells. Efficacy in vitro was assessed by plating 30,000 cells in 50 μL of high glucose DMEM with penicillin-streptomycin and 10 % fetal calf serum on SISgel in a 96-well plate containing 50 μL of gelled SISgel per well. Cells were allowed to attach and assume the SISgel phenotype for 48 h. A matching plate without SISgel was prepared 24 h later by pipetting 3,000 cells in 100 μL of high glucose DMEM with penicillin-streptomycin and 10 % fetal calf serum into each well of 96 well plate. The cells were allowed to attach and grow for 24 h. These numbers of cells gave approximately equal replication rates at the time drug was added for cells grown on the plastic surface or SISgel as determined by the fraction of S-phase cells identified by flow cytometry. The cells were exposed to drug in fresh medium for 48 h, at which time the cell number was determined using the CFDA-AM cellular esterase proliferation assay (cat. #C1354, Life Technologies). For screening the results are reported as the ratio of cell count of cells on the plastic surface to the cell count on SISgel. An initial difference of 1.5 fold identified potential hits. All potential hits were confirmed in triplicate. Those compounds that replicated were confirmed by a full dose–response study yielding an EC50 using five wells per drug concentration. Data were analyzed using nonlinear regression to a sigmoid curve with Prism 4 (GraphPad Software, Inc., LaJolla, CA). Potential hits that were confirmed by dose–response using J82 were also tested with MDA-MB-435 breast cancer, PC-3 metastatic prostate cancer, Capan1 pancreatic cancer and the J82 bladder cancer cell lines.

For test [2], the system named is J82 (bladder). In words: Proliferation EC50 on SISgel vs monolayer. Particulars: n = 6-8. Type of test: cell-based.
From the text: as §1

Molecules are shown by their SMILES. Like-named read-outs stand apart in the source and are kept apart here.

As a reminder, the EC50 is the concentration that produces a half-maximal response. On to `O=S(=O)([O-])c1cc(O)c2c(O)c(N=Nc3cccc4ccccc34)c(S(=O)(=O)[O-])cc2c1.[Na+].[Na+]` [DT320, 4,5-Dihydroxy-3-(1-naphthalenylazo)-2,7-naphthalenedisulfonic acid disodium salt], for which the EC50 stood at 80.1 ± 10.2 µM in test [1] (Capan-1 monolayer, read-out: EC50 Monolayer); 22.9 ± 4.8 µM in test [1] (Capan-1 on SISgel, read-out: EC50 SISgel); 71.2 ± 8.1 µM in test [2] (J82 monolayer, read-out: EC50 Monolayer); 30.9 ± 4.8 µM in test [2] (J82 on SISgel, read-out: EC50 SISgel).
